Data on six molecules can be found in patent US4612311A, “1,2,4-benzothiadiazine oxide derivatives” (Warner-Lambert Company, priority 1984, dated 1986).

Series [1] is described as follows: Punished exploratory behavior (4 plate test), anxiolytic activity. To be noted: for Anxiolytic Activity (punished exploration), increase: 30 min before test, control = 100%. Format: in vivo, male mice (NMRI). The method, then:
(§1) Experimental animals used were male mice (NMRI, origin: Ivanovas, Kissleg) of weight 18 to 25 g. The animals were allowed food and water ad lib.. but, according to the test, they were fasted for two to 16 hours before the beginning of the test with water allowed ad lib.
(§2) The substances under test were applied orally by means of a stomach tube in a 0.8% methocel suspension 30 minutes before the start of the test.
(§3) The model for testing for anxiolytic activity is based on the experimental creation of a conflict in the animals by counteracting the natural exploratory tendencies of the animals with an anxiety-inducing stimulus (aversive foot shock, aversive illumination).
The test box has a metal base consisting of four rectangles of equal size. After placing the animal in the box it can freely explore for 15 seconds. Then every transition from one metal plate of the base to another is punished by a mild foot shock (1.5 mA for 0.5 seconds). The number of tolerated foot shocks within one minute is the measure of the anxiolytic activity of the substance. The average number of accepted foot shock by the control animals was taken as 100%. Ten animals were examined per dose.

Series [2] can be described thus: Motility test (spontaneous motility). Format: in vivo, male mice (NMRI). To be noted: 30 min. As to the method: as §1, §2
The spontaneous motility was measured simultaneously for a test group of five animals each for 30 minutes in two opaque cages (length 50 cm, width 25 cm, height 30 cm) using three infrared light barriers in each case. The sum of the impulses registered for the control group during this period was taken as 100% and the deviation in the case of the test group from this value was calculated in percent.

The next series is described as follows: Ataxia threshold. Format: in vivo, male mice (NMRI). The settings on record: oral, ">": no effect up to this highest examined dosage. As to the method: as §1, §2
Series [3] can be described thus: Effect on duration of hexobarbital anesthesia (hypnotic activity). Format: in vivo, male mice (NMRI). To be noted: hexobarbital sodium 70 mg/kg i.v. As to the method: as §1, §2
Seventy mg/kg (10 ml/kg body weight) of hexobarbital sodium were injected into a tail vein within a period of 15 seconds. Ten animals were used per dose. The criterion for the end of anesthesia was the moment when the animal roused itself from lying on its side. The average duration of anesthesia in the control animals was taken as 100 and the increases measured were calculated as a percentage of this value.

The target of series [4] is benzodiazepine rec. In words: Receptor binding: benzodiazepine rec.
Series [5] relates to benzodiazepine rec. In words: GABA-Ratio, benzodiazepine receptor binding. The settings on record: in words.
A short description of the next series: LD50. On the set-up: species or system male mice (NMRI). The settings on record: mouse, in vivo; oral; ">": no effect up to this highest examined dosage. The method, then: as §1, §2
The nature of series [6]: Unpunished exploratory behavior (light-dark preference), anxiolytic activity. Format: in vivo, male mice (NMRI). The settings on record: 30 min before test, control = 100%. The method, then:
as §1, §2, §3
The testing equipment consists of a larger, brightly illuminated compartment and a smaller dark compartment. The animal is placed in the dark compartment and observed for ten minutes. The number of transitions between the compartments and the time spent in the two compartments are measured. The average number of transitions between the compartments of the control animals is taken as 100%. Ten animals were tested per dose.

Each structure is given as a SMILES string. Bounds are passed on as bounds.

The Kd is a measure of binding affinity in units of concentration. What is called LD50 is the dose expected to kill half of the subjects tested. High values mean a less toxic substance, low ones a more toxic substance. Turning to `Cc1nc2n(n1)-c1ccc(Cl)cc1S(=O)(c1ccccc1Cl)=N2` (racemic) [Example 2c, (±)-7-Chloro-2-methyl-5-(2-chlorophenyl)[1,2,4]triazolo[5,1-c][1,2,4]benzothiadiazine-5-oxide], in series [1] (30 mg/kg oral), the “Anxiolytic Activity (punished exploration), increase” value was 66%. The “Spontaneous Motility, increase” value in series [2] (30 mg/kg oral, control = 100%) was determined as 6%. For the same molecule, in “Ataxia threshold”, the “Ataxia Threshold” value was over 100 mg/kg. Further, the “Hypnotic Activity (increase in sleep time)” value in series [3] (30 mg/kg oral) is on record as 96%. For the same molecule, the Kd on benzodiazepine rec. [4] stood at 20 nM. Besides, the “GABA-Ratio, agonist character” value with benzodiazepine rec. [5] is on record as “part. ago”. In addition, in the series “LD50”, the median lethal dose (LD50) was over 400 mg/kg.
With `Cc1nc2n(n1)-c1ccc(Cl)cc1S(=O)(c1cccc(Cl)c1)=N2` (racemic) [Example 1c, (±)-7-Chloro-5-(3-chlorophenyl)-2-methyl-[1,2,4]triazolo[5,1-c][1,2,4]benzothiadiazine-5-oxide], the “Anxiolytic Activity (punished exploration), increase” value in series [1] (15 mg/kg oral) came out at 35%. For the same molecule, the “Spontaneous Motility, increase” value in series [2] (15 mg/kg oral, control = 100%) is recorded as 12%. Further, the “Ataxia Threshold” value in the series “Ataxia threshold” is recorded as over 100 mg/kg. Besides, the “Hypnotic Activity (increase in sleep time)” value in series [3] (15 mg/kg oral) came to 6%. The molecule also registered a Kd on benzodiazepine rec. [4] of 10000 nM. Further, in the series “LD50”, the 50% lethal dose (LD50) was over 400 mg/kg.
Turning to `Cc1nc2n(n1)-c1ccc(Cl)cc1S(=O)(c1ccccc1)=N2` (racemic) [Example 1a, (±)-7-Chloro-2-methyl-5-phenyl-[1,2,4]triazolo[5,1-c][1,2,4]benzothiadizine-5-oxide], in series [1] (7.5 to 45 mg/kg, compared with diazepam 1 to 4 mg/kg), the “Anxiolytic activity (in words)” value is on record as “comparable with that of diazapam (1 to 4 mg/kg)”. Also, in “Ataxia threshold”, the “Ataxia Threshold” value is on record as over 100 mg/kg. In addition, the “Hypnotic Activity (increase in sleep time)” value in series [3] (25 mg/kg oral) is 123%; in series [3] (50 mg/kg oral) it was 175%. Further, on benzodiazepine rec. [4], the Kd worked out at 1500 nM. For the same molecule, in the series on benzodiazepine rec. [5], the “GABA-Ratio, agonist character” value is given as “part. agonist”. The 50% lethal dose (LD50) in the series “LD50” turned out to be 1600 mg/kg.
For `CN1C(=O)CN=C(c2ccccc2)c2cc(Cl)ccc21` [Diazepam, reference compound], the “Anxiolytic Activity (unpunished exploration), increase” value in series [6] (2 mg/kg oral) was determined as 43%. Moreover, in series [6] (5 mg/kg oral), the “Anxiolytic Activity (unpunished exploration), decrease” value is 33%. Besides, the “Spontaneous Motility, decrease” value in series [2] (5 mg/kg oral, control = 100%) came out at 67%. The “Ataxia Threshold” value in the series “Ataxia threshold” is 5 mg/kg; in “Ataxia threshold” (listed as diazepam), “approximately 5 mg/kg”. Further, the “Hypnotic Activity (increase in sleep time)” value came to 286% in series [3] (2 mg/kg oral) and 320% in series [3] (4 mg/kg oral). This molecule also displayed an equilibrium dissociation constant (Kd) on benzodiazepine rec. [4] of 64 nM.
Turning to `O=S1(c2ccccc2)=Nc2ncnn2-c2ccc(Cl)cc21` (racemic) [Example 4a, (±)-7-Chloro-5-phenyl-[1,2,4]triazolo[5,1-c][1,2,4]benzothiadiazine-5-oxide], the “Anxiolytic Activity (punished exploration), increase” value in series [1] (15 mg/kg oral) was determined as 45%. In addition, the “Spontaneous Motility (effect in words)” value in series [2] (100 mg/kg oral) is listed as “no effect”. Moreover, the “Ataxia Threshold” value in “Ataxia threshold” was over 100 mg/kg. Also, the “Hypnotic Activity (increase in sleep time)” value in series [3] (100 mg/kg oral) is given as 224%. The molecule also returned a Kd at benzodiazepine rec. [4] of 3500 nM. Moreover, the “GABA-Ratio, agonist character” value in the series with benzodiazepine rec. [5] is on record as “part. ago”. The same molecule had a median lethal dose (LD50) in the series “LD50” of over 400 mg/kg.
As for `O=S1(c2ccccc2)=Nc2ncnn2-c2cc(Cl)c(Br)cc21` (racemic) [Example 4b, (±)-7-Bromo-8-chloro-5-phenyl-[1,2,4]triazolo[5,1-c][1,2,4]benzothiadiazine-5-oxide], in series [1] (12.5 mg/kg oral), the “Anxiolytic Activity (punished exploration), increase” value amounted to 34%. The “Spontaneous Motility, increase” value in series [2] (12.5 mg/kg oral, control = 100%) is given as 83%. Also, in “Ataxia threshold”, the “Ataxia Threshold” value is reported as over 400 mg/kg. The “Hypnotic Activity (increase in sleep time)” value in series [3] (25 mg/kg oral) stood at 21%. Also, the affinity on benzodiazepine rec. [4], expressed as Kd, was 100000 nM. Besides, the LD50 in the series “LD50” is over 400 mg/kg.
